Results: article PMC6271944 (Molecules, 2014)

How the values were obtained:
CYP2C9 = biological target: T1, CYP2C9 (Homo sapiens, UniProt P11712); assay: CYP inhibition in human liver microsomes, substrate cocktail, LC-MS/MS (diclofenac); format: in vitro ADME; settings: metabolite 4-hydroxydiclofenac, read-out: IC50 for HLM, CYP2C9
T1 construct: Pooled human liver microsomes (HLM, LOT 32556) were purchased from BD Gentest Corporation; tissue BD Gentest Corporation LOT 32556; host or cells: pooled human liver microsomes
Description: (§1) Positive controls (furafyline for CYP1A2, montelukast for CYP2C8, sulfaphenazole for CYP2C9, S-(+)-N-3-benzylnirvanol for CYP2C19, quinidine for CYP2D6, ketoconazole for CYP3A4) and specific substrates (phenacetin for CYP1A2, paclitaxel for CYP2C8, diclofenac for CYP2C9, S-mephenytoin for CYP2C19, dextromethorphan for CYP2D6, midazolam for CYP3A4) are consistent with our previous papers. The substrates were used at concentrations approximately equal to their respective Michaelis-Menten constant (Km) values: 10 μM phenacetin, 5 μM paclitaxel, 5 μM diclofenac, 200 μM S-mephenytoin, 5 μM dextromethorphan, and 2 μM midazolam. NADP^+ was added after a 15 min preincubation of all other components at 37 °C. After a given incubation time (30 min), the reactions were terminated by addition of 60 μL ice-cold acetonitrile containing gemfibrozil and buspirone as internal standards. Incubation samples were stored at −80 °C until used in liquid chromatography-tandem mass spectrometry (LC-MS/MS) analysis. The mixture was centrifuged at 3,500 rpm for 5 min. The supernatant was mixed with equal volume of a 1:1 mixture of methanol and water and 20 μL of the final mixture was used for LC-MS/ MS analysis. […]
(§2) The CYP inhibition potential were evaluated by measuring the formation of one or more metabolites of the test substrates. […]

CYP2D6 = biological target: T2, CYP2D6 (Homo sapiens, UniProt P10635); assay: CYP inhibition in human liver microsomes, substrate cocktail, LC-MS/MS (dextromethorphan); format: in vitro ADME; settings: metabolite dextrorphan, read-out: IC50 for HLM, CYP2D6
T2 construct: Pooled human liver microsomes (HLM, LOT 32556) were purchased from BD Gentest Corporation; tissue BD Gentest Corporation LOT 32556; host or cells: pooled human liver microsomes
Description: as §1, §2

CYP2C79 = assay: CYP inhibition in rat liver microsomes, substrate cocktail, LC-MS/MS (S-mephenytoin); format: in vitro ADME; settings: pH 7.4, probe S-mephenytoin 200 μM, 95% CI in brackets, read-out: IC50 for RLM, CYP2C79 (table row CYP2C19)
Description: as §1, §2

CYP3A4 = biological target: T3, CYP3A4 (Homo sapiens, UniProt P08684); assay: CYP inhibition in human liver microsomes, substrate cocktail, LC-MS/MS (midazolam); format: in vitro ADME; settings: metabolite 1-hydroxymidazolam, read-out: IC50 for HLM, CYP3A4
T3 construct: Pooled human liver microsomes (HLM, LOT 32556) were purchased from BD Gentest Corporation; tissue BD Gentest Corporation LOT 32556; host or cells: pooled human liver microsomes
Description: as §1, §2

P-gp = biological target: T4, P-gp (Homo sapiens, UniProt P08183); assay: P-gp inhibition, calcein-AM fluorometry assay in WM-266-4 cells; format: cell-based; settings: probe calcein-AM (1 μM), all six concentrations 4.1~1,000 μM, response relative to verapamil at 100 μM
T4 construct: host or cells: WM-266-4 human melanoma cells
Method: One vial of WM-266-4 cells was thawed and cultured in a 15 cm culture dish overnight. Cells were split the next day and transferred onto a clear bottom 96-well plate with 5.0 × 10^4 cells per well. […] Verapamil was used as a positive control at a concentration of 100 μM and 1% DMSO was used as a negative control. After 30 min of incubation time, calcein-AM diluted with 50 μL culture media without serum was added to a concentration of 1 μM and the sample was incubated for an additional 30 min. The plates were placed in the Flexstation II (Molecular Devices) and fluorescence was measured at excitation and emission wavelengths of 494 and 517 nm, respectively.
The P-gp inhibitor verapamil was used as positive control at a concentration of 100 μM. The experiment was considered valid if an increase in fluorescence greater than 5-fold was observed. For P-gp inhibition, a compound with a response less than 25% of verapamil at 100 μM is normally reported as “negative” at the tested concentration. The percent response value was used to determine and report the P-gp interaction at the tested concentration. A response equal to or greater than 25% of verapamil at 100 μM was considered to be “positive” at the tested concentration.

CYP1A2 = biological target: T5, CYP1A2 (Rattus norvegicus, UniProt P04799); assay: CYP inhibition in rat liver microsomes, substrate cocktail, LC-MS/MS (phenacetin); format: in vitro ADME; parameters: Pooled rat liver microsomes were prepared from three male Sprague-Dawley rats; from tissue; host or cells: pooled liver microsomes of three male Sprague-Dawley rats, prepared at HD Biosciences Co; settings: read-out: IC50 for RLM, CYP1A2
T5 sequence (P04799 1-513): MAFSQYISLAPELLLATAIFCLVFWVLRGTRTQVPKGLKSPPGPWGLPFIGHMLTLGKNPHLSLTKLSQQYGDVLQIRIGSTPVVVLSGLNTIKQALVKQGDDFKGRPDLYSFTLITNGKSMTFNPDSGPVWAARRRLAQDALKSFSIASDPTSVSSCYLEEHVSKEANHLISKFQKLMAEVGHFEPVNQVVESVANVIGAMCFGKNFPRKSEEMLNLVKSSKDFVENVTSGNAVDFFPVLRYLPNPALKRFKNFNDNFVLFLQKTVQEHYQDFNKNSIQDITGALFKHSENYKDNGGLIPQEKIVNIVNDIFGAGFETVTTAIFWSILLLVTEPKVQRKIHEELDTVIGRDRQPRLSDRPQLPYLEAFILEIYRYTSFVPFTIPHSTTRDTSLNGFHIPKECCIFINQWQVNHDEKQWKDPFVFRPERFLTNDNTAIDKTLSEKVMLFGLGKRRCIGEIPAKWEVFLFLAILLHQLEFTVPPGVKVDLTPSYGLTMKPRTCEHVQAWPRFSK
Description: as §1, §2

UGT1A6 = test system: UGT1A6; parameters: dose or concentration left out as unconfirmed; settings: cited from earlier work

T4 sequence (P08183 whole entry): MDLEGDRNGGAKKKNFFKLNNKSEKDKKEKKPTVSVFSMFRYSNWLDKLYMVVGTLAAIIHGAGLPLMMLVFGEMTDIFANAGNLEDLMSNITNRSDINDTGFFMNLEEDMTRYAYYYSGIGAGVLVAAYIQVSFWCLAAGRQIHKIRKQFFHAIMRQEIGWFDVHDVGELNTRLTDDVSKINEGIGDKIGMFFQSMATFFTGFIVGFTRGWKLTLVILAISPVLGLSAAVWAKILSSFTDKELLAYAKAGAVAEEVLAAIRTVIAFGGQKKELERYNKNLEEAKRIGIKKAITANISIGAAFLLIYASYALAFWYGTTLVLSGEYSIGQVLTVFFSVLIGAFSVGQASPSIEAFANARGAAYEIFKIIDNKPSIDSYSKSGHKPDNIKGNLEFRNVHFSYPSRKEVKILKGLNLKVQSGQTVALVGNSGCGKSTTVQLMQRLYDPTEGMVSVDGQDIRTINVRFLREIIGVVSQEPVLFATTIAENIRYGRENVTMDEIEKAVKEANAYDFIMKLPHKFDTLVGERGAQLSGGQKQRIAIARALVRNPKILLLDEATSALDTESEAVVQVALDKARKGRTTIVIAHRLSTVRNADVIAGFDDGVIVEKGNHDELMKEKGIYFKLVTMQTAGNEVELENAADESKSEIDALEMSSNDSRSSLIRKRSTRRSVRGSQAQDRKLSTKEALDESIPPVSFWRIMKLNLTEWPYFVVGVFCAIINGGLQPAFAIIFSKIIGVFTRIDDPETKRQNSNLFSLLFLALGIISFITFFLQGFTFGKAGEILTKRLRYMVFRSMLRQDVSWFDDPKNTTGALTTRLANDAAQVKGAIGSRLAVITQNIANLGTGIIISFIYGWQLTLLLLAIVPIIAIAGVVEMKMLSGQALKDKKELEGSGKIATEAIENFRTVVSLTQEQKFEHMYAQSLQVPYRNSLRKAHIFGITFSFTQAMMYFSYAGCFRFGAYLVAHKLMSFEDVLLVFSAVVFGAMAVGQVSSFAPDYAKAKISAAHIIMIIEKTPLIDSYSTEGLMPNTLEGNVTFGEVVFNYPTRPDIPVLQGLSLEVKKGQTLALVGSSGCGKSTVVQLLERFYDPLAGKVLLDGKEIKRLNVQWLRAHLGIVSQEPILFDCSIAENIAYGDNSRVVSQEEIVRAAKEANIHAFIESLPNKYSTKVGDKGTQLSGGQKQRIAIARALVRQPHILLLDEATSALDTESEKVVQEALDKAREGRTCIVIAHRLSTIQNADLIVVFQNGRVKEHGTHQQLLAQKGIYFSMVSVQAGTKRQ
T1 sequence (P11712 whole entry): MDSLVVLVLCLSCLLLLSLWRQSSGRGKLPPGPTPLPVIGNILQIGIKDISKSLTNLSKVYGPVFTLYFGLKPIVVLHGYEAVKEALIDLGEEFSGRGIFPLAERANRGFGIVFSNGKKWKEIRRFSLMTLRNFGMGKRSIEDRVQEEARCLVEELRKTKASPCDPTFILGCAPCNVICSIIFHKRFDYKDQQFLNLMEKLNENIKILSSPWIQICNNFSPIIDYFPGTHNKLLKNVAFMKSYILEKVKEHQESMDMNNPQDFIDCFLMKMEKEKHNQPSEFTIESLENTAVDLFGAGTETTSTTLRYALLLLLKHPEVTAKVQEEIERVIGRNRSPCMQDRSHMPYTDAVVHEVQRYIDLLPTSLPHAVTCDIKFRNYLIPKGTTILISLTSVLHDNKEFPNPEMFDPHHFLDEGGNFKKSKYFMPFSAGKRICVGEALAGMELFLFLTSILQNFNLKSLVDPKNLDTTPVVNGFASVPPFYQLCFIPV
T2 sequence (P10635 whole entry): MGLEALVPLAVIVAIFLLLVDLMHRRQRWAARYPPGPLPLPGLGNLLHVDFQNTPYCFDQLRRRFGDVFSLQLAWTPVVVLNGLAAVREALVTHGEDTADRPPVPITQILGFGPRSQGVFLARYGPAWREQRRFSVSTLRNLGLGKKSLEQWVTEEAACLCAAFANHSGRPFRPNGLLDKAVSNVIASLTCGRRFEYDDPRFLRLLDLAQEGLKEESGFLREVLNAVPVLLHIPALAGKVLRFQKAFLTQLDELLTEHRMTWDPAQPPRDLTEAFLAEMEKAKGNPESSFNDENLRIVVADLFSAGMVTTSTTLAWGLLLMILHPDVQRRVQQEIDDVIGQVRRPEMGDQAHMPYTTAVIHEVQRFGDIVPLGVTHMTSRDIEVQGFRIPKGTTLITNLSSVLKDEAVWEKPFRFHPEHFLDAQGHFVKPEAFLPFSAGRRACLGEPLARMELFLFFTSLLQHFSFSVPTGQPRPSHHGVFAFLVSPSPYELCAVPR
T3 sequence (P08684 whole entry): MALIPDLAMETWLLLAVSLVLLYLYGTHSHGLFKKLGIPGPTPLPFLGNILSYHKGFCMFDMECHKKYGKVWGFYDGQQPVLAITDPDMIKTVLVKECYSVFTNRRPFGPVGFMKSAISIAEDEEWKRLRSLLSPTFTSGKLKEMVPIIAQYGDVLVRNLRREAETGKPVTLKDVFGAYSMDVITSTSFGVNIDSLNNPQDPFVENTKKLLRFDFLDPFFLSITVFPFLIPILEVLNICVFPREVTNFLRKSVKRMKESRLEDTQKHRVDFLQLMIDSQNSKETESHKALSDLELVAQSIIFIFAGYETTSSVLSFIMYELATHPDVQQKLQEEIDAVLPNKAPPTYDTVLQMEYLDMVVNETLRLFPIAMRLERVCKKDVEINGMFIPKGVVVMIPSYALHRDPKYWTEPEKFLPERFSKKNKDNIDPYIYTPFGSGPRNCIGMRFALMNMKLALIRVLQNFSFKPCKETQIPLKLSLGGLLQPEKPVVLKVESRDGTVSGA

For `O=C(O)[C@H]1O[C@@H](Oc2cc3oc(-c4ccc(O)cc4)cc(=O)c3c(O)c2O)[C@H](O)[C@@H](O)[C@@H]1O` [scutellarin, Scutellarin], the IC50 (CYP2C9) was > 100 µM, the IC50 (CYP2D6) was > 100 µM and the IC50 at 30 min (CYP2C79) was 85.6 µM. For the same molecule, the IC50 (CYP3A4) was > 100 µM, the inhibition at 60 min (P-gp) was < 25% and the IC50 (CYP1A2) was > 100 µM. The “inhibition towards the activity of UGT1A6” value (UGT1A6) was 20.2%.
